According to article PMC10714400, “Antimicrobial Peptide–Peptoid Hybrids with and without Membrane Disruption” (ACS Infectious Diseases, 2023):
Converted amounts (≈) assume the structure as drawn. Read-outs that look alike come from different tables or passages of the source. Where a SMILES comes first, the peptide text is derived from it. [ ]: non-standard residue; d: D form.

Columns and labels:
A. baumannii ATCC19606 = tested on: A. baumannii ATCC19606
Summary of the method: (§1)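 MTT added (20–30 min, room temperature); MIC read by eye as lowest concentration inhibiting visible growth (yellow). Polymyxin B positive control from 16 μg/mL.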

E. cloacae = tested on: E. cloacae
Summary of the method: (§2)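 Microdilution MIC in MH broth; inocula from overnight LB cultures at 37 °C, about 5 × 10^5 CFU per well. Plates stood ca. 18 h at 37 °C, then MTT (1 mg/mL) was added for 20–30 min at RT, and wells remaining yellow marked inhibition.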

E. coli W3110 = tested on: E. coli W3110
Summary of the method: as §2

K. pneumoniae NCTC418 = tested on: K. pneumoniae NCTC418
Summary of the method: as §1

K. pneumoniae OXA-48 = tested on: K. pneumoniae OXA-48
Summary of the method: as §2

P. aeruginosa PAO1 = tested on: P. aeruginosa PAO1
Summary of the method: as §2

PA14 2P4 (pmrB) = tested on: PA14 2P4 (pmrB)
Summary of the method: as §2

[1] = diluted MH ([…] MH, pH 8.5) per Table 1 footnote b, 16–20 h at 37 °C
[2] = full MH, pH 7.4, 16–20 h at 37 °C

CC(C)C[C@H](NC(=O)[C@H](CC(C)C)NC(=O)[C@H](CC(C)C)NC(=O)[C@@H](CCCCN)NC(=O)[C@H](CC(C)C)NC(=O)[C@H](CC(C)C)NC(=O)[C@@H](CCCCN)NC(=O)[C@H](CC(C)C)NC(=O)[C@H](CC(C)C)NC(=O)[C@@H](CCCCN)NC(=O)[C@H](N)CCCCN)C(N)=O [ln69, kkLLkLLkLLL, reference compound] (H-[dK][dK]LL[dK]LL[dK]LLL-NH2)
MIC A. baumannii ATCC19606, […] MH at pH 7.4 (A. baumannii ATCC19606; CSV, […] MH at pH 7.4): 2 ug/mL
MIC A. baumannii ATCC19606, […] MH at pH 8.5 (A. baumannii ATCC19606; CSV, […] MH at pH 8.5): 2 ug/mL
MIC A. baumannii ATCC19606, full MH at pH 7.4 (A. baumannii ATCC19606; CSV, full MH at pH 7.4): 3 ug/mL
MIC A. baumannii ATCC19606, full MH at pH 8.5 (A. baumannii ATCC19606; CSV, full MH at pH 8.5): 12 ug/mL
MIC A. baumannii ATCC19606 […] 7.4 (A. baumannii ATCC19606; Table S2, […] MH, pH 7.4): 2 µg/mL (≈ 1.51 µM)
MIC A. baumannii ATCC19606 […] 8.5 (A. baumannii ATCC19606; Table S2, […] MH, pH 8.5): 2 µg/mL (≈ 1.51 µM)
MIC A. baumannii ATCC19606 Full MH 7.4 (A. baumannii ATCC19606; Table S2, full MH, pH 7.4): 2 to 4 µg/mL
MIC A. baumannii ATCC19606 Full MH 8.5 (A. baumannii ATCC19606; Table S2, full MH, pH 8.5): 8 to 16 µg/mL
MIC A. baumannii ATCC19606 […] (A. baumannii ATCC19606; [1]): 2 µg/mL (≈ 1.51 µM)
MIC A. baumannii ATCC19606 Full (A. baumannii ATCC19606; [2]): 2 to 4 µg/mL
MIC E. cloacae, […] MH at pH 8.5 (E. cloacae; CSV, […] MH at pH 8.5): 2 ug/mL
MIC E. cloacae, full MH at pH 7.4 (E. cloacae; CSV, full MH at pH 7.4): 4 ug/mL
MIC E. cloacae (E. cloacae; MH pH 7.4, 16–20 h at 37 °C): 4 µg/mL (≈ 3.03 µM)
MIC E. cloacae (E. cloacae; Table S3, […] MH at pH 8.5): 2 µg/mL (≈ 1.51 µM)
MIC E. coli W3110, […] MH at pH 7.4 (E. coli W3110; CSV, […] MH at pH 7.4): 2 ug/mL
MIC E. coli W3110, […] MH at pH 8.5 (E. coli W3110; CSV, […] MH at pH 8.5): 2 ug/mL
MIC E. coli W3110, full MH at pH 7.4 (E. coli W3110; CSV, full MH at pH 7.4): 4 ug/mL
MIC E. coli W3110 […] 7.4 (E. coli W3110; Table S2, […] MH, pH 7.4): 2 µg/mL (≈ 1.51 µM)
MIC E. coli W3110 […] 8.5 (E. coli W3110; Table S2, […] MH, pH 8.5): 2 µg/mL (≈ 1.51 µM)
MIC E. coli W3110 Full MH 7.4 (E. coli W3110; Table S2, full MH, pH 7.4): 4 µg/mL (≈ 3.03 µM)
MIC E. coli W3110 Full MH 8.5 (E. coli W3110; Table S2, full MH, pH 8.5): 16 µg/mL (≈ 12.1 µM)
MIC K. pneumoniae NCTC418, […] MH at pH 7.4 (K. pneumoniae NCTC418; CSV, […] MH at pH 7.4): 4 ug/mL
MIC K. pneumoniae NCTC418, […] MH at pH 8.5 (K. pneumoniae NCTC418; CSV, […] MH at pH 8.5): 2 ug/mL
MIC K. pneumoniae NCTC418, full MH at pH 7.4 (K. pneumoniae NCTC418; CSV, full MH at pH 7.4): 8 ug/mL
MIC K. pneumoniae NCTC418, full MH at pH 8.5 (K. pneumoniae NCTC418; CSV, full MH at pH 8.5): 16 ug/mL
MIC K. pneumoniae NCTC418 […] 7.4 (K. pneumoniae NCTC418; Table S2, […] MH, pH 7.4): 4 µg/mL (≈ 3.03 µM)
MIC K. pneumoniae NCTC418 […] 8.5 (K. pneumoniae NCTC418; Table S2, […] MH, pH 8.5): 2 µg/mL (≈ 1.51 µM)
MIC K. pneumoniae NCTC418 Full MH 7.4 (K. pneumoniae NCTC418; Table S2, full MH, pH 7.4): 8 µg/mL (≈ 6.05 µM)
MIC K. pneumoniae NCTC418 Full MH 8.5 (K. pneumoniae NCTC418; Table S2, full MH, pH 8.5): 16 µg/mL (≈ 12.1 µM)
MIC K. pneumoniae NCTC418 […] (K. pneumoniae NCTC418; [1]): 4 µg/mL (≈ 3.03 µM)
MIC K. pneumoniae NCTC418 Full (K. pneumoniae NCTC418; [2]): 8 µg/mL (≈ 6.05 µM)
MIC K. pneumoniae OXA-48, […] MH at pH 8.5 (K. pneumoniae OXA-48; CSV, […] MH at pH 8.5): 2 ug/mL
MIC K. pneumoniae OXA-48, full MH at pH 7.4 (K. pneumoniae OXA-48; CSV, full MH at pH 7.4): 4 ug/mL
MIC K. pneumoniae OXA-48 (K. pneumoniae OXA-48; MH pH 7.4, 16–20 h at 37 °C): 4 µg/mL (≈ 3.03 µM)
MIC K. pneumoniae OXA-48 (K. pneumoniae OXA-48; Table S3, […] MH at pH 8.5): 2 µg/mL (≈ 1.51 µM)
MIC P. aeruginosa PAO1, […] MH at pH 7.4 (P. aeruginosa PAO1; CSV, […] MH at pH 7.4): 4 ug/mL
MIC P. aeruginosa PAO1, […] MH at pH 8.5 (P. aeruginosa PAO1; CSV, […] MH at pH 8.5): 2 ug/mL
MIC P. aeruginosa PAO1, full MH at pH 7.4 (P. aeruginosa PAO1; CSV, full MH at pH 7.4): 8 ug/mL
MIC P. aeruginosa PAO1, full MH at pH 8.5 (P. aeruginosa PAO1; CSV, full MH at pH 8.5): 8 ug/mL
MIC P. aeruginosa PAO1 […] 7.4 (P. aeruginosa PAO1; Table S2, […] MH, pH 7.4): 4 µg/mL (≈ 3.03 µM)
MIC P. aeruginosa PAO1 […] 8.5 (P. aeruginosa PAO1; Table S2, […] MH, pH 8.5): 2 µg/mL (≈ 1.51 µM)
MIC P. aeruginosa PAO1 Full MH 7.4 (P. aeruginosa PAO1; Table S2, full MH, pH 7.4): 8 µg/mL (≈ 6.05 µM)
MIC P. aeruginosa PAO1 Full MH 8.5 (P. aeruginosa PAO1; Table S2, full MH, pH 8.5): 8 µg/mL (≈ 6.05 µM)
MIC P. aeruginosa PAO1 […] (P. aeruginosa PAO1; [1]): 4 µg/mL (≈ 3.03 µM)
MIC P. aeruginosa PAO1 Full (P. aeruginosa PAO1; [2]): 8 µg/mL (≈ 6.05 µM)
MIC P. aeruginosa PA14 2P4, […] MH at pH 8.5 (PA14 2P4 (pmrB); CSV, […] MH at pH 8.5): 4 ug/mL
MIC P. aeruginosa PA14 2P4, full MH at pH 7.4 (PA14 2P4 (pmrB); CSV, full MH at pH 7.4): 32 ug/mL
MIC PA14 2P4 (pmrB) (PA14 2P4 (pmrB); MH pH 7.4, 16–20 h at 37 °C): 32 µg/mL (≈ 24.2 µM)
